Entries after “also recorded” stand apart in the source; their conditions may differ. Starred links: 1 amine or outer side, 2 acyl side, 3 side chain; linkers in the order of their positions; H or OH if unused. Residues, ends and D or L forms follow the SMILES beside them. *: point of attachment. Glutaryl = O=C(CCCC(=O)[*:2])[*:1]; AMC = Cc1cc(=O)oc2cc(N*)ccc12
Key:
[1] = tested on: thioredoxin reductase (trxB); test: Thioredoxin reductase (trxB) detection assay; format: biochemical, Mycoplasma hyorhinis
Method: Other fluorescent probes such as BODIPY®FL L-cystine and the 2′,7′-difluoro-4′-(2-(5-((dimethyl amino phenyl)azo)pyridyl)dithiopropionyl aminomethyl)fluorescein (abbreviated as DFDMAP-fluorescein) were studied to improve the sensitivity and the signal-to-noise ratio of the assay. Assays were performed with 40 mM Tris pH 7.2, 100 mM NaCl±detergent.
A detergent lysis buffer procedure that would hydrolyze the simple Mycoplasma cell membranes but not lyse the tissue culture cells was needed. Methyl-6-O—(N-heptylcarbamoyl)-α-D-glucopyranoside (HECAMEG) is a preferred detergent.
An alternative substrate to produce the thioredoxin reductase signal was to measure the release of horseradish peroxidase (HRP) from a chromatography bead tethered with the heterobifunctional crosslinking reagent 3,3′-dithiobis[sulfosuccinimidylpropionate] (DTSSP).

[2] = tested on: reductases produced by the bacteria; test: Dye decolorization by bacterial culture supernatants; format: biochemical; conditions: bacterial culture supernatant, about 18 hours incubation
Method: Each well was incubated with 10 μg of reactive black 5 plus 190 μl of culture supernatant from the following bacterium: E. coli, E. faecalis, S. aureus, P. aeruginosa, S. pyogenes, and S. marcescens. […] The decolorization is indicative of reductases produced by the bacteria.
Reductase activity can be measured through a Azo dye that gets decolorized by the release of reductases from many bacterial cells. […] A sensor placed on the bottom of a culture dish, buffer container or even on a swab for measuring the presence of mycoplasma in human fluids can be used to ascertain bacterial contamination or infection. The benefit of a simple azo dye sensor is low cost although it may not specifically detect different bacteria. […] Each well was incubated with 10 μg of reactive black 5 plus 190 μl of filtered culture supernatant from the following bacterium: E. coli, E. faecalis, S. aureus, P. aeruginosa, S. pyogenes, and S. marcescens. […] The decolorization is indicative of reductases produced by the bacteria.

S. aureus = test: Thioredoxin reductase cross-reactivity with DTNB substrate; format: biochemical; conditions: up to 10^6 CFU/ml S. aureus
Text: (§1) Since thioredoxin reductases are widely distributed in eukaryotes and prokaryotic cells, there is a possibility that thioredoxin reductases from other microbes may cross-react with this assay to give a false positive result. […] This high NTS activity is presumed to be useful for Mycoplasma for the detoxification of reactive oxygen compounds, since the Mollicutes have simple genomes that lack the genes encoding enzymes such as catalase, peroxidase and […] that function to remove H2O2 and other oxygen radicals in other bacteria (Gibson, D. G., et al., Complete chemical synthesis, assembly, and cloning of a Mycoplasma genitalium genome. Science. 319(5867):1215-1220 (2008)).

E. coli = test: as above; format: biochemical; conditions: up to 10^6 CFU/ml E. coli
Text: as §1

M. hyorhinis [3] = test: Effect of divalent cations on Vmax, MCA-Leu substrate; format: biochemical, Mycoplasma hyorhinis; set-up: unit not given here; conditions: 1 mM additive in place of 1 mM MgCl2
Method: (§2) A presently preferred substrate is leu-MCA that had significant activity above the uninfected media control under the gentle conditions used to lyse the Mycoplasma (0.05% HECAMEG, 1 mM MgCl2, 100 mM NaCl, 40 mM Tris buffer, pH 8.5). The MCA-Leu substrate produces a signal level of 500 mOD in 30 minutes with M. hyorhinis, while M. hyorhinis has weak activity for arg-MCA.
Detergent lysis of M. hyorhinis with HECAMEG gives better signal than sonication. Manganese or magnesium also improves the signal to noise ratio.

Mycoplasma cells = test: Detergent lysis buffer procedure for trxB assay; format: cell-based
Method: A detergent lysis buffer procedure that would hydrolyze the simple Mycoplasma cell membranes but not lyse the tissue culture cells was needed. Methyl-6-O—(N-heptylcarbamoyl)-α-D-glucopyranoside (HECAMEG) is a preferred detergent. […] As expected, 0.1 mM NADPH enhanced the activity of trxB (FIG. 12). As a substrate for trxB, Bodipy® FL L-cystine provided a signal that was 7500 times that of the buffer control, however this signal was an artifact of the digitonin.

[4] = tested on: lon ATP-dependent protease; test: Assays for proteolytic activity, fluorogenic MCA substrate (Table 5); format: biochemical, Mycoplasma hyorhinis; set-up: unit not given beside the values
Text: (§3) Further studies examined the suitability of the […] for use in a diagnostic test. These studies used several fluorogenic substrates consisting of small chain amino acids coupled to a methoxy coumarin fluorescent probe (MCA, (7-methoxycoumarin-4-yl)acetyl). The test conditions were “buffer,” phosphate-buffered saline (PBS), “uninfected medium,” medium from cell cultures not infected with Mycoplasma, “infected medium,” medium from cell cultures infected with Mycoplasma, and a Mycoplasma positive control derived from a Mycoplasma culture. In each case the uninfected media control had substantial background proteolytic activity, with pepA being the most candidate with a signal-to-noise ratio (S/N) of about 2, where S/N=(Vmax infected medium)/(Vmax uninfected medium).

M. hyorhinis [5] = test: Vmax measured using MCA labeled substrates with gentle HECAMEG lysis; format: biochemical, Mycoplasma hyorhinis; set-up: Vmax: unit not given here
Method: as §2

[6] = tested on: pepA Leucine aminopeptidase; test: Assays for proteolytic activity, fluorogenic MCA substrate (Table 5); format: biochemical, Mycoplasma hyorhinis
Text: as §3

[7] = tested on: map Methionine aminopeptidase; test: as above; format: biochemical, Mycoplasma hyorhinis; set-up: unit not given beside the values
Text: as §3

`Cc1cc(C)n2c1C=C1C=CC(CCC(=O)N[C@@H](CSSC[C@H](NC(=O)CCC3=[N+]4C(=Cc5c(C)cc(C)n5[B-]4(F)F)C=C3)C(=O)O)C(=O)O)=[N+]1[B-]2(F)F` [Bodipy® FL L-cystine, BODIPY®FL L-cystine] was tested, and the “signal relative to buffer control” value ([1]; signal was an artifact of the digitonin) was 7500 times.

In the case of `CN(C)c1ccc(N=Nc2ccc(C(=O)O)cc2)cc1` [DABCYL, 4-((4-(dimethylamino)phenyl)azo)benzoic acid], the decolorization [2] is reported as “completely decolorized”.

`CN(C)c1ccc(N=Nc2ccc(SSCCC(=O)NCc3c(O)c(F)cc4c(-c5ccccc5C(=O)O)c5cc(F)c(=O)cc-5oc34)nc2)cc1` [DFDMAP fluorescein, 2′,7′-difluoro-4′-(2-(5-((dimethylaminophenyl)azo)pyridyl)dithiopropionylaminomethyl)fluorescein] was tested, and the detection level ([1]; at 10^7-10^8 CFU/ml) was 10,000-20,000 RFU.

`O=C(O)c1cc(SSc2ccc([N+](=O)[O-])c(C(=O)O)c2)ccc1[N+](=O)[O-]` [DTNB, 5,5′-Dithio-bis-(2-nitrobenzoic acid)] was tested, and the “hydrolysis / thioredoxin reductase activity” value (S. aureus) was “no significant activity; also recorded: no appreciable hydrolysis” and the “hydrolysis / thioredoxin reductase activity” value (E. coli) was “no significant activity; also recorded: no appreciable hydrolysis”.

`O=C(O)CN(CCN(CC(=O)O)CC(=O)O)CC(=O)O` [EDTA] was tested, and the “Vmax, MCA-Leu Substrate” value (M. hyorhinis [3]; Buffer) was 0, the “Vmax, MCA-Leu Substrate” value (M. hyorhinis [3]; Infected) was 45241 and the “Vmax, MCA-Leu Substrate” value (M. hyorhinis [3]; Medium) was 1710. The “Vmax, MCA-Leu Substrate” value (M. hyorhinis [3]; Uninfected) was 3873.

For `CCCCCCCNC(=O)OC[C@H]1O[C@H](OC)[C@H](O)[C@@H](O)[C@@H]1O` [HECAMEG, Methyl-6-O—(N-heptylcarbamoyl)-α-D-glucopyranoside], the “concentration sufficient to lyse Mycoplasma cells while not disrupting the membranes of the cultured cells” value (Mycoplasma cells) was 0.5%.

With `O=S(=O)([O-])[O-].[Mg+2]` [MgSO4] the “Vmax, MCA-Leu Substrate” value (M. hyorhinis [3]; Buffer) was 483, the “Vmax, MCA-Leu Substrate” value (M. hyorhinis [3]; Infected) was 90365 and the “Vmax, MCA-Leu Substrate” value (M. hyorhinis [3]; Uninfected) was 5125.

`[Cl][Mn][Cl]` [MnCl2] was tested, and the “Vmax, MCA-Leu Substrate” value (M. hyorhinis [3]; Medium) was 1703.

With `CCN(Cc1cccc(S(=O)(=O)[O-])c1)c1ccc(C(=C2C=CC(=[N+](CC)Cc3cccc(S(=O)(=O)[O-])c3)C=C2)c2ccccc2S(=O)(=O)[O-])cc1.[Na+].[Na+]` [blue dye number 1] the decolorization [2] was “not decolorized”.

`Cc1cc(=O)oc2cc(NC(=O)[C@H](Cc3ccccc3)NC(=O)[C@H](C)NC(=O)[C@H](C)NC(=O)CCCC(=O)O)ccc12` [glt-ala-ala-phe-MCA] (Glutaryl-Ala-Ala-Phe-{AMC}) was tested, and the Vmax ([4]; Buffer (PBS)) was 55.8, the Vmax ([4]; Infected medium) was 1802 and the Vmax ([4]; Mycoplasma positive control) was 3354. It also gave a Vmax ([4]; Uninfected medium) of 1460.

With `Nc1c(N=Nc2ccc(S(=O)(=O)CCOS(=O)(=O)[O-])cc2)c(S(=O)(=O)[O-])cc2cc(S(=O)(=O)[O-])c(N=Nc3ccc(S(=O)(=O)CCOS(=O)(=O)[O-])cc3)c(O)c12.[Na+].[Na+].[Na+].[Na+]` [reactive black 5] the decolorization [2] was “completely decolorized”.

In the case of “arginine-(7-methoxycoumarin-4-yl)acetyl [arg-MCA]”, the “activity of M. hyorhinis for substrate” value (M. hyorhinis [5]; 0.05% HECAMEG, 1 mM MgCl2, 100 mM NaCl, 40 mM Tris buffer, pH 8.5) is reported as “weak activity”, the Vmax (M. hyorhinis [5]; Buffer) is reported as 0 and the Vmax (M. hyorhinis [5]; Infected medium) is reported as 60903. It also gave a Vmax (M. hyorhinis [5]; Medium) of 676 and a Vmax (M. hyorhinis [5]; Uninfected medium) of 29034.

“leucine-(7-methoxycoumarin-4-yl)acetyl [leu-MCA]” gave a Vmax (M. hyorhinis [5]; Buffer) of 236, a Vmax (M. hyorhinis [5]; Infected medium) of 415190 and a Vmax (M. hyorhinis [5]; Medium) of 2118. For the same molecule, the Vmax (M. hyorhinis [5]; Uninfected medium) was 17422, the signal level (M. hyorhinis [5]; in 30 minutes with M. hyorhinis) was 500 mOD and the Vmax ([6]; Buffer (PBS)) was 2874. It also gave a Vmax ([6]; Infected medium) of 906, a Vmax ([6]; Mycoplasma positive control) of 522 and a Vmax ([6]; Uninfected medium) of 454.

For “methionine-(7-methoxycoumarin-4-yl)acetyl [met-MCA]”, the Vmax (M. hyorhinis [5]; Buffer) was 125, the Vmax (M. hyorhinis [5]; Infected medium) was 302082 and the Vmax (M. hyorhinis [5]; Medium) was 1731. For the same molecule, the Vmax (M. hyorhinis [5]; Uninfected medium) was 19004, the Vmax ([7]; Buffer (PBS)) was 19.4 and the Vmax ([7]; Infected medium) was 627. For the same molecule, the Vmax ([7]; Mycoplasma positive control) was 733 and the Vmax ([7]; Uninfected medium) was 430.

Source: patent publication US20100221758A1, “Sensors for Measuring Contaminants” (ECI Biotech Inc., priority 2007, published 2010)
